Measurements taken from patent publication US12655380B2, “Fluidic device” (UNIVERSITY PUBLIC CORPORATION OSAKA, priority 2019, dated 2026).

Tested on: BBB model (human cerebrovascular endothelial cells, pericytes, astrocytes)
Assay: Barrier Function Evaluation Experiment 2: passage of the fluorescent dye through the BBB model in the fluidic device
Assay type: in vitro ADME
Conditions: 200 μM Lucifer Yellow in first flow path; after 5 minutes (300 seconds) flow; measured in the neuron cell culture module in the second accommodation section, behind the BBB model; FIG. 25(b)/FIG. 26
Description: Specifically, a cubic polycarbonate three-dimensional frame having a side length of 5 mm was prepared, and a 1.5% agarose gel was poured into an opening of the three-dimensional frame and gelled to form a film-shaped window from the resulting hydrogel. The window was formed on each of five faces of the three-dimensional frame as described above. Thereafter, a clump of neurons differentiated from human brain-derived neural stem cells and Matrigel (registered trademark) being an un-gelled culture gel were injected into a cubic space within the three-dimensional frame, and the culture gel was gelled. Then, a hydrogel window was formed on a remaining face of the three-dimensional frame. Through the above, the cell culture module including neurons was produced. […]
An experiment was conducted for evaluation of the barrier function of the BBB model. […] After the fluorescent dye solution and the medium had flowed for 5 minutes (300 seconds), a fluorescence image and a phase-contrast image of the inside of the cell culture module were captured through the fluidic device.
FIGS. 24(a) and 24(b) each show a fluorescence image (left) of the inside of the cell culture module including neurons used in the control experiment, and an image (right) obtained by superimposing the fluorescence image and a phase-contrast image on one another. […]

relative luminance value on dashed line x-x' (corresponds to Lucifer Yellow concentration): approximately 0.1
Substance: Lucifer Yellow [fluorescent dye]
